Assay results reported in patent publication US6737383B1, “Herbicidal oxadiazolidines” (priority 1999, dated 2004).

What was measured:
rape = test: Test B pre/postemergence rape; type: in vivo, Brassica napus; settings: for Rape plant response rating: scale of 0 to 10 where 0 is no effect and 10 is complete control
How it was run: (§1)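 Test chemicals in a non-phytotoxic solvent mixture with surfactant were sprayed preemergence onto planted seeds and postemergence onto plants 2 to 18 cm tall (1- to 4-leaf stage). After twelve to sixteen days in a greenhouse, injury was visually rated against untreated controls from 0 (no effect) to 10 (complete control).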

velvetleaf = test: Test B pre/postemergence velvetleaf; type: in vivo, Abutilon theophrasti; settings: for Velvetleaf plant response rating: scale of 0 to 10 where 0 is no effect and 10 is complete control
How it was run: as §1

wheat = test: Test B pre/postemergence wheat; type: in vivo, Triticum aestivum; settings: for Wheat plant response rating: scale of 0 to 10 where 0 is no effect and 10 is complete control
How it was run: as §1

bamyardgrass = test: Test B flood test barnyardgrass; type: in vivo, Echinochloa crus-galli
How it was run: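 Each value is a visual injury score relative to controls, with 10 meaning complete control and 0 no effect. Evaluation took place twelve to sixteen days after the 2-leaf-stage plants were treated and kept in the greenhouse.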

[1] = Postemergence, Rate 125 g/ha, scale 0 to 10, 0 is no effect, 10 is complete control
[2] = Preemergence, Rate 62 g/ha, scale 0 to 10 (0 no effect, 10 complete control)
[3] = Rate 500 g/ha, Postemergence, scale 0 to 10, 0 no effect, 10 complete control
[4] = Postemergence (flood test), Rate 125 g/ha, scale 0 to 10, 0 is no effect, 10 is complete control
[5] = Rate 62 g/ha, Postemergence (flood test species), scale of 0 to 10 where 0 is no effect and 10 is complete control
[6] = Rate 500 g/ha, listed under Postemergence (flood test species), scale 0 to 10, 0 no effect, 10 complete control
[7] = Postemergence, Rate 250 g/ha, scale 0 to 10, 0 is no effect, 10 is complete control

Compound	Plant response rating, Rape (rape; [1])	Plant response rating, Rape (rape; [2])	Rape plant response rating (0 to 10 scale) (rape; Preemergence, Rate 125 g/ha)	Rape plant response rating (rape; Preemergence, Rate 250 g/ha)	Rape plant response rating (rape; Preemergence, Rate 500 g/ha)	Rape plant response rating (rape; Rate 62 g/ha, Postemergence)	Plant response rating, Rape (rape; [3])	Plant response rating, Velvetleaf (velvetleaf; [1])	Plant response rating, Velvetleaf (velvetleaf; [2])	Velvetleaf plant response rating (0 to 10 scale) (velvetleaf; Preemergence, Rate 125 g/ha)	Velvetleaf plant response rating (velvetleaf; Preemergence, Rate 250 g/ha)	Velvetleaf plant response rating (velvetleaf; Preemergence, Rate 500 g/ha)	Velvetleaf plant response rating (velvetleaf; Rate 62 g/ha, Postemergence)	Plant response rating, Velvetleaf (velvetleaf; [3])	Plant response rating, Wheat (wheat; [1])	Plant response rating, Wheat (wheat; [2])	Wheat plant response rating (0 to 10 scale) (wheat; Preemergence, Rate 125 g/ha)	Wheat plant response rating (wheat; Preemergence, Rate 250 g/ha)	Wheat plant response rating (wheat; Preemergence, Rate 500 g/ha)	Wheat plant response rating (wheat; Rate 62 g/ha, Postemergence)	further results
CC(C)N(C(=O)n1oc(=O)n(C2CCCCCC2)c1=O)c1ccc(F)cc1F [Compound 342]	0	0	0	0	0	0	4	0	0	0	0	0	0	0	0	0	0	0	3	0	Plant response rating, Wheat (wheat; [3]): 0; Plant response rating, Barnyardgrass (bamyardgrass; [4]): 2; Barnyardgrass plant response rating (bamyardgrass; [5]): 0; Plant response rating, Barnyardgrass (bamyardgrass; Rate 250 g/ha, Postemergence (flood test species), scale of 0 to 10 where 0 is no effect and 10 is complete control): 9; Plant response rating, Barnyardgrass (bamyardgrass; [6]): 9
CCN(CC)C(=O)n1oc(=O)n(-c2ccccc2C)c1=O [Compound 364]	0	0	0	0	2	0	0	0	0	0	0	0	0	0	0	0	0	0	0	0	Plant response rating, Rape (rape; [7]): 0; Plant response rating, Velvetleaf (velvetleaf; [7]): 0; Plant response rating, Wheat (wheat; [7]): 0; Plant response rating, Wheat (wheat; [3]): 0; Plant response rating, Barnyardgrass (bamyardgrass; [4]): 0; Barnyardgrass plant response rating (bamyardgrass; [5]): 0; Plant response rating, Barnyardgrass (bamyardgrass; [6]): 0; Plant response rating, Barnyardgrass (bamyardgrass; flood test species, listed under Postemergence, Rate 250 g/ha, scale 0 to 10, 0 is no effect, 10 is complete control): 0
CCOc1nc(C(F)(F)F)c(Cn2c(=O)on(C(=O)N(c3ccccc3)C(C)C)c2=O)s1 [Compound 379]	0	0	0	0	0	0	0	0	0	0	0	0	0	0	0	0	0	0	0	0	Plant response rating, Rape (rape; [7]): 0; Plant response rating, Velvetleaf (velvetleaf; [7]): 0; Plant response rating, Wheat (wheat; [7]): 0; Plant response rating, Wheat (wheat; [3]): 0; Plant response rating, Barnyardgrass (0 to 10 scale, 0 is no effect, 10 is complete control) (bamyardgrass; Rate 62 g/ha, flood test species, Pre-emergence, visual evaluation after twelve to sixteen days): 0; Barnyardgrass plant response rating (0 to 10 scale, 0 is no effect, 10 is complete control) (bamyardgrass; Rate 125 g/ha, under heading Pre-emergence, flood test species, visual evaluation after twelve to sixteen days): 0; Barnyardgrass plant response rating (bamyardgrass; Rate 250 g/ha, Pre-emergence, flood-test species, scale 0 to 10, 0 is no effect, 10 is complete control): 0; Barnyardgrass plant response rating (bamyardgrass; Rate 500 g/ha, Pre-emergence, flood test species, scale 0 to 10 (0 no effect, 10 complete control)): 0
